The record followed here is ChEMBL document CHEMBL1139487, “Discovery of corticotropin releasing factor 2 receptor selective sauvagine analogues for treatment of skeletal muscle atrophy” (J Med Chem, 2005).

Assay [1] addresses T1, Corticotropin-releasing factor receptor 1 (Mus musculus) (UniProt P35347).
T1 sequence (whole entry): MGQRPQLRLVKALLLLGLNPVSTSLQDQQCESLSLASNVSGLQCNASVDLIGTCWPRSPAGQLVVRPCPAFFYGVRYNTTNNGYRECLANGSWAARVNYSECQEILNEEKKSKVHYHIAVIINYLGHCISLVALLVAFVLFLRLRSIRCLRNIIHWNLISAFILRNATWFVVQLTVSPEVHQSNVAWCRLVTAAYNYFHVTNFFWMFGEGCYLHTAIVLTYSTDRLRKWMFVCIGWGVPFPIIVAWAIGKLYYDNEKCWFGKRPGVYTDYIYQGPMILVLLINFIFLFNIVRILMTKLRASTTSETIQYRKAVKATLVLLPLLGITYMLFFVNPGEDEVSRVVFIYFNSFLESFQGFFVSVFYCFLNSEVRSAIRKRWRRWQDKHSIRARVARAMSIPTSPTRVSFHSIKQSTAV
In words: In vitro agonistic activity against mouse corticotropin releasing factor 1 receptor. It counts as functional.

In assay [2] the target is Corticotropin-releasing factor receptor 2 (Mus musculus) (UniProt Q60748). In words: In vitro agonistic activity against mouse corticotropin releasing factor 2 receptor. In kind it is functional.
Assay [3] concerns the target Corticotropin-releasing factor receptor 2 (Mus musculus, UniProt Q60748). In words: In vitro effective concentration for mouse corticotropin releasing factor 2 receptor.
The target of assay [4] is T2, Corticotropin-releasing factor receptor 1 (Mus musculus, UniProt P35347).
T2 sequence (P35347 whole entry): T1 sequence (whole entry)
In words: In vitro effective concentration for mouse corticotropin releasing factor 1 receptor.

pEC50: −log10 of the molar value.

Chain of Corticotropin-releasing factor receptor 2 (Q60748 whole entry): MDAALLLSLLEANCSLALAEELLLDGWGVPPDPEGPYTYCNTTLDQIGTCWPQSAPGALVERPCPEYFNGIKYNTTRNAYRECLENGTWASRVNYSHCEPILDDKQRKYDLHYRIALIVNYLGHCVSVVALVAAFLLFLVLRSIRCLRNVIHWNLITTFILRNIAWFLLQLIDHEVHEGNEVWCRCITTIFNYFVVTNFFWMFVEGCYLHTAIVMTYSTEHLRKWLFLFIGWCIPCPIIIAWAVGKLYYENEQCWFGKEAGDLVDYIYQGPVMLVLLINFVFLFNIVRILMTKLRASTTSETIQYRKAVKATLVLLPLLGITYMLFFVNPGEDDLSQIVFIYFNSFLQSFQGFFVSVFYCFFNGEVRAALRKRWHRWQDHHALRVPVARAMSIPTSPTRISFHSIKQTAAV
Chain of Corticotropin-releasing factor receptor 2 (Mus musculus) (Q60748 whole entry): as above

For the compound `CC[C@H](C)[C@H](NC(=O)[C@@H](NC(=O)[C@H](CCC(=O)O)NC(=O)[C@H](CCSC)NC(=O)[C@H](CC(C)C)NC(=O)[C@H](CCCCN)NC(=O)[C@H](CCCN=C(N)N)NC(=O)[C@H](CC(N)=O)NC(=O)[C@H](CO)NC(=O)[C@H](Cc1c[nH]cn1)NC(=O)[C@H](C)NC(=O)[C@H](CCC(N)=O)NC(=O)[C@H](CCC(N)=O)NC(=O)[C@H](C)NC(=O)[C@H](CC(C)C)NC(=O)[C@H](CCC(N)=O)NC(=O)[C@H](CCC(=O)O)NC(=O)[C@H](C)NC(=O)[C@H](CCCN=C(N)N)NC(=O)[C@H](C)NC(=O)[C@H](CCSC)NC(=O)[C@H](CCC(=O)O)NC(=O)[C@H](CC(C)C)NC(=O)[C@@H](NC(=O)[C@H](CCC(=O)O)NC(=O)[C@H](CCCN=C(N)N)NC(=O)[C@H](CC(C)C)NC(=O)[C@H](CC(C)C)NC(=O)[C@H](Cc1c[nH]cn1)NC(=O)[C@H](Cc1ccccc1)NC(=O)[C@@H](NC(=O)[C@H](CC(C)C)NC(=O)[C@H](CC(=O)O)NC(=O)[C@H](CC(C)C)NC(=O)[C@H](CO)NC(=O)[C@@H](NC(=O)[C@@H]1CCCN1C(=O)[C@@H]1CCCN1C(=O)[C@H](CCC(=O)O)NC(=O)[C@H](CCC(=O)O)NC(=O)[C@@H](N)CO)[C@@H](C)CC)[C@@H](C)O)C(C)C)[C@@H](C)CC)C(=O)O`, the figures for the Emax in assay [1] and in assay [2] were 87% and 82%, respectively.
Regarding `CC[C@H](C)[C@H](NC(=O)[C@@H](NC(=O)[C@H](CC(=O)O)NC(=O)[C@H](CC(C)C)NC(=O)[C@H](CC(C)C)NC(=O)[C@H](CC(C)C)NC(=O)[C@H](CCCNC(=N)N)NC(=O)[C@H](CC(N)=O)NC(=O)[C@H](CC(N)=O)NC(=O)[C@H](C)NC(=O)[C@H](C)NC(=O)[C@H](CCC(N)=O)NC(=O)[C@H](CCC(N)=O)NC(=O)[C@H](CCCCN)NC(=O)[C@H](CCC(=O)O)NC(=O)[C@H](CCCCN)NC(=O)[C@H](CCC(=O)O)NC(=O)[C@H](CCC(N)=O)NC(=O)[C@H](CCCCN)NC(=O)[C@H](CCC(=O)O)NC(=O)[C@@H](NC(=O)[C@H](CCC(=O)O)NC(=O)[C@@H](NC(=O)[C@H](CCSC)NC(=O)[C@H](CCCCN)NC(=O)[C@H](CCCNC(=N)N)NC(=O)[C@H](CC(C)C)NC(=O)[C@H](CC(C)C)NC(=O)[C@H](Cc1ccc(O)cc1)NC(=O)[C@@H](NC(=O)[C@@H]1CCCN1C(=O)[C@H](CC(C)C)NC(=O)[C@H](CC(=O)O)NC(=O)[C@@H](NC(=O)[C@H](CO)NC(=O)[C@@H](NC(=O)[C@@H]1CCCN1C(=O)[C@@H]1CCCN1C(=O)CNC(=O)[C@@H]1CCC(=O)N1)[C@@H](C)CC)[C@@H](C)CC)[C@@H](C)CC)[C@@H](C)CC)[C@@H](C)CC)[C@@H](C)O)C(=O)O`, the pEC50 was 7.65 in assay [3] and below 6.00 in assay [4].
Regarding `CC[C@H](C)[C@H](NC(=O)[C@@H](NC(=O)[C@H](CC(=O)O)NC(=O)[C@H](CC(C)C)NC(=O)[C@H](CC(C)C)NC(=O)[C@H](CC(C)C)NC(=O)[C@H](CCCNC(=N)N)NC(=O)[C@H](CC(N)=O)NC(=O)[C@H](CC(N)=O)NC(=O)[C@H](C)NC(=O)[C@H](C)NC(=O)[C@H](CCC(N)=O)NC(=O)[C@H](CCC(N)=O)NC(=O)[C@H](CCCCN)NC(=O)[C@H](CCC(=O)O)NC(=O)[C@H](CCCCN)NC(=O)[C@H](CCC(=O)O)NC(=O)[C@H](CCC(N)=O)NC(=O)[C@H](CCCCN)NC(=O)[C@H](CCC(=O)O)NC(=O)[C@@H](NC(=O)[C@H](CCC(=O)O)NC(=O)[C@@H](NC(=O)[C@H](CCSC)NC(=O)[C@H](CCCCN)NC(=O)[C@H](CCCNC(=N)N)NC(=O)[C@H](CC(C)C)NC(=O)[C@H](CC(C)C)NC(=O)[C@H](CCC(N)=O)NC(=O)[C@H](CC(C)C)NC(=O)[C@@H]1CCCN1C(=O)[C@H](CC(C)C)NC(=O)[C@H](CC(=O)O)NC(=O)[C@@H](NC(=O)[C@H](CO)NC(=O)[C@@H](NC(=O)[C@@H]1CCCN1C(=O)[C@@H]1CCCN1C(=O)CNC(=O)[C@@H]1CCC(=O)N1)[C@@H](C)CC)[C@@H](C)CC)[C@@H](C)CC)[C@@H](C)CC)[C@@H](C)O)C(=O)O`, the values for the negative logarithm of the EC50 (pEC50) in assay [3] and in assay [4] were 8.19 and 6.37, respectively.
For `CC[C@H](C)[C@H](NC(=O)[C@@H](NC(=O)[C@H](CC(=O)O)NC(=O)[C@H](CC(C)C)NC(=O)[C@H](CC(C)C)NC(=O)[C@H](CC(C)C)NC(=O)[C@H](CCCNC(=N)N)NC(=O)[C@H](CC(N)=O)NC(=O)[C@H](CC(N)=O)NC(=O)[C@H](C)NC(=O)[C@H](C)NC(=O)[C@H](CCC(N)=O)NC(=O)[C@H](CCC(N)=O)NC(=O)[C@H](CCCCN)NC(=O)[C@H](CCC(=O)O)NC(=O)[C@H](CCCCN)NC(=O)[C@H](CCC(=O)O)NC(=O)[C@H](CCC(N)=O)NC(=O)[C@H](CCCCN)NC(=O)[C@H](CCC(=O)O)NC(=O)[C@@H](NC(=O)[C@H](CCC(=O)O)NC(=O)[C@@H](NC(=O)[C@H](CCSC)NC(=O)[C@H](CCCCN)NC(=O)[C@H](CCCNC(=N)N)NC(=O)[C@H](CC(C)C)NC(=O)[C@H](CC(C)C)NC(=O)[C@H](Cc1ccc(O)cc1)NC(=O)[C@H](Cc1ccc(O)cc1)NC(=O)[C@@H]1CCCN1C(=O)[C@H](CC(C)C)NC(=O)[C@H](CC(=O)O)NC(=O)[C@@H](NC(=O)[C@H](CO)NC(=O)[C@@H](NC(=O)[C@@H]1CCCN1C(=O)[C@@H]1CCCN1C(=O)CNC(=O)[C@@H]1CCC(=O)N1)[C@@H](C)CC)[C@@H](C)CC)[C@@H](C)CC)[C@@H](C)CC)[C@@H](C)O)C(=O)O` the same measures were 8.15 and 6.99.
As to `CC[C@H](C)[C@H](NC(=O)[C@@H](NC(=O)[C@H](CC(=O)O)NC(=O)[C@H](CC(C)C)NC(=O)[C@H](CC(C)C)NC(=O)[C@H](CC(C)C)NC(=O)[C@H](CCCNC(=N)N)NC(=O)[C@H](CC(N)=O)NC(=O)[C@H](CC(N)=O)NC(=O)[C@H](C)NC(=O)[C@H](C)NC(=O)[C@H](CCC(N)=O)NC(=O)[C@H](CCC(N)=O)NC(=O)[C@H](CCCCN)NC(=O)[C@H](CCC(=O)O)NC(=O)[C@H](CCCCN)NC(=O)[C@H](CCC(=O)O)NC(=O)[C@H](CCC(N)=O)NC(=O)[C@H](CCCCN)NC(=O)[C@H](CCC(=O)O)NC(=O)[C@@H](NC(=O)[C@H](CCC(=O)O)NC(=O)[C@@H](NC(=O)[C@H](CCSC)NC(=O)[C@H](CCCCN)NC(=O)[C@H](CCCNC(=N)N)NC(=O)[C@H](CC(C)C)NC(=O)[C@H](CC(C)C)NC(=O)[C@H](CCC(N)=O)NC(=O)[C@H](CCC(N)=O)NC(=O)[C@@H]1CCCN1C(=O)[C@H](CC(C)C)NC(=O)[C@H](CC(=O)O)NC(=O)[C@@H](NC(=O)[C@H](CO)NC(=O)[C@@H](NC(=O)[C@@H]1CCCN1C(=O)[C@@H]1CCCN1C(=O)CNC(=O)[C@@H]1CCC(=O)N1)[C@@H](C)CC)[C@@H](C)CC)[C@@H](C)CC)[C@@H](C)CC)[C@@H](C)O)C(=O)O`, the negative logarithm of the EC50 (pEC50) in assay [3] is 7.52; in assay [4] it was below 6.00.
Regarding `CC[C@H](C)[C@H](NC(=O)[C@@H](NC(=O)[C@H](CCC(=O)O)NC(=O)[C@H](CCSC)NC(=O)[C@H](CC(C)C)NC(=O)[C@H](CCCCN)NC(=O)[C@H](CCCNC(=N)N)NC(=O)[C@H](CC(N)=O)NC(=O)[C@H](CO)NC(=O)[C@H](Cc1c[nH]cn1)NC(=O)[C@H](C)NC(=O)[C@H](CCC(N)=O)NC(=O)[C@H](CCC(N)=O)NC(=O)[C@H](C)NC(=O)[C@H](CC(C)C)NC(=O)[C@H](CCC(N)=O)NC(=O)[C@H](CCC(=O)O)NC(=O)[C@H](C)NC(=O)[C@H](CCCNC(=N)N)NC(=O)[C@H](C)NC(=O)[C@H](CCSC)NC(=O)[C@H](CCC(=O)O)NC(=O)[C@H](CC(C)C)NC(=O)[C@@H](NC(=O)[C@H](CCC(=O)O)NC(=O)[C@H](CCCNC(=N)N)NC(=O)[C@H](CC(C)C)NC(=O)[C@H](CC(C)C)NC(=O)[C@H](Cc1c[nH]cn1)NC(=O)[C@H](Cc1ccccc1)NC(=O)[C@@H](NC(=O)[C@H](CC(C)C)NC(=O)[C@H](CC(=O)O)NC(=O)[C@H](CC(C)C)NC(=O)[C@H](CO)NC(=O)[C@@H](NC(=O)[C@@H]1CCCN1C(=O)[C@@H]1CCCN1C(=O)[C@H](CCC(=O)O)NC(=O)[C@H](CCC(=O)O)NC(=O)[C@@H](N)CO)[C@@H](C)CC)[C@@H](C)O)C(C)C)[C@@H](C)CC)C(N)=O` [HUMAN CORTICOTROPIN RELEASING FACTOR], in assay [4], the pEC50 was 7.70.
With `CC[C@H](C)[C@H](NC(=O)[C@@H](NC(=O)[C@H](CC(=O)O)NC(=O)[C@H](CC(C)C)NC(=O)[C@H](CC(C)C)NC(=O)[C@H](CC(C)C)NC(=O)[C@H](CCCN=C(N)N)NC(=O)[C@H](CC(N)=O)NC(=O)[C@H](CC(N)=O)NC(=O)[C@H](C)NC(=O)[C@H](C)NC(=O)[C@H](CCC(N)=O)NC(=O)[C@H](CCC(N)=O)NC(=O)[C@H](CCCCN)NC(=O)[C@H](CCC(=O)O)NC(=O)[C@H](CCCCN)NC(=O)[C@H](CCC(=O)O)NC(=O)[C@H](CCC(N)=O)NC(=O)[C@H](CCCCN)NC(=O)[C@H](CCC(=O)O)NC(=O)[C@@H](NC(=O)[C@H](CCC(=O)O)NC(=O)[C@@H](NC(=O)[C@H](CCSC)NC(=O)[C@H](CCCCN)NC(=O)[C@H](CCCN=C(N)N)NC(=O)[C@H](CC(C)C)NC(=O)[C@H](CC(C)C)NC(=O)[C@H](CCC(=O)O)NC(=O)[C@H](CC(C)C)NC(=O)[C@H](CO)NC(=O)[C@H](CC(C)C)NC(=O)[C@H](CC(=O)O)NC(=O)[C@@H](NC(=O)[C@H](CO)NC(=O)[C@@H](NC(=O)[C@@H]1CCCN1C(=O)[C@@H]1CCCN1C(=O)CNC(=O)[C@@H]1CCC(=O)N1)[C@@H](C)CC)[C@@H](C)CC)[C@@H](C)CC)[C@@H](C)CC)[C@@H](C)O)C(=O)O` [SAUVAGINE], the Emax is 99% in assay [1] and 95% in assay [2].
Consider “H-IVLSLDVPIGLLQILLEQARARAAREQATTNARILARV-OH”, for which the Emax in assay [1] amounted to 8%; in assay [2], 96%.

Usually Emax stands for the maximal effect, on the per cent scale that the assay sets. The term pEC50 denotes −log10 of the EC50, conventionally taken in molar units.
